Literature values, collected in patent publication US20120211706A1, “POLYDENTATE LIGAND METAL COMPLEX” (SUMITOMO CHEMICAL COMPANY, LIMITED, priority 2009, published 2012).
Structures can show the parent of a compound that is named as a salt.

Details: 1N aqueous sulfuric acid solution

## C=C[C@H]1C[N@@]2CC[C@H]1C[C@H]2[C@H](O)c1ccnc2ccc(OC)cc12 [quinine sulfate]
  emission quantum yield of standard sample: 55%
